# Data as given in patent US10758609B2, “Cross-reactive T-cell epitopes of HIV, SIV, and FIV for vaccines in humans and cats” (priority 2015, dated 2020).
# Residues, ends and D or L forms follow the SMILES beside them.
# System: CD8^+ T cells from HIV^+ subjects
# Experiment: FACS-based intracellular staining (ICS) for cytolysin (perforin) and cytotoxins (GrzA, GrzB) in CD8+ T cells
# Details: HIV+ human subjects; for CyCD8: CD8+ T-cell cytolysin/cytotoxins (perforin, GrzA & B), frequency of responders: HIV-1 epitope peptide, threshold ≥0.2%; for Cyto: CD8+ T-cell cytotoxins (perforin, GrzA & B), frequency of responders: FIV epitope peptide; for Cyto (cytolysin/cytotoxin production), frequency of responders: FIV peptides
# Method: The overlapping peptide pools of FIV and HIV-1 structural and enzyme proteins were used to stimulate the […] (PBMC) and the T cells from HIV^+ subjects as previously described for epitope mapping of HIV-1 and FIV p24 and reverse transcriptase (RT) (Sanou et al., 2013; Roff et al., 2015). The individual peptides in those peptide pools with positive responses to either interferon-γ (IFNγ) production and/or T-cell proliferation were determined with IFNγ ELISpot analysis and CFSE-based CD3^+CD4^+ and CD3^+CD8^+ T-cell proliferation analyses followed by the FACS-based intracellular staining (ICS) for cytolysin (perforin) and cytotoxin (granzyme A [GrzA] and GrzB) (Sanou et al., 2013; Roff et al., 2015). Besides viral p24 and RT proteins, the identical approach was used to identify anti-HIV/FIV T-cell epitopes on viral matrix (MA), nucleocapsid (NC), protease (PR), RNAase, integrase (IN), surface envelope (SU Env), and transmembrane envelope (TM Env) (FIG. 12).
# Since our goal is to develop HIV vaccine for human use, the HIV peptides (Table 10) counterpart of the cross-reactive FIV peptides shown in Table 9 were tested with PBMC and T cells from HIV^+ subjects. The immune functions analyzed were human IFNγ production by ELISpot, cytolysin/cytotoxin production by ICS, and CFSE-based proliferation of CD3^+CD4^+ and CD3^+CD8^+ T cells from HIV^+ subjects (Table 10, the first set of results). In addition, the Los Alamos National Laboratories (LANL) database was used to identify the HLA allele(s) of the HIV epitope sequence with CTL activity that can exist within the sequence of the conserved counterpart HIV peptide (Table 9, LANL CTL). The bold HLA class-I supertypes and the bold 2-digit alleles are those on the “Optimal CD8^+ CTL Epitopes” list and those without bold are alleles for potential CTL epitope. […] The HLA class II such as HLA-DRB1 has yet to be fully classified into supertypes, and therefore the 4-digit resolution nomenclatures for the HLA-DRB1 alleles are shown.
# The threshold for positive IFNγ and IL2 ELISpot responses is ≥50 spot-forming units (SFU) per 10^6 PBMC. The threshold for CFSE-based CD4^+ and CD8^+ T-cell proliferation is ≥2% CD4^+ T-cell CFSE^low or CD8^+ T-cell CFSE^low. The threshold of FACS-based intracellular cytokine staining (ICS) is ≥0.2%. […] The nine FIV peptides in black were used in the current MAP vaccine trial, whereas the 13 peptides in blue were not used. […] The MAPs and their corresponding peptide(s) were also tested for their ability to enhance or suppress in vitro FIV infection of feline PBMC (E/S of peptides and E/S of MAP).
# The counterpart HIV-1 peptides of the FIV peptides were also tested for immunogenicity using PBMC and T cells from HIV^+ human subjects. […] The HRT7-1 and HRT7-2 were also tested with cells from HIV^+ subjects on ART. The threshold for positive IFNγ ELISpot response is ≥75 spot-forming units (SFU) per 10^6 PBMC. The threshold for CFSE-based CD4^+ (CD4^+ T) and CD8^+ (CD8^+ T) T-cell proliferation is ≥2% CD4^+ T-cell CFSE^low or CD8^+ T-cell CFSE^low. The threshold of intracellular cytokine staining (ICS) of FACS-based cytolysin (perforin) and cytotoxins (granzymes A and B) in CD4^+ T cells (CyCD4) and CD8^+ T cells (CyCD8) is ≥0.2%. […] The nine HIV-1 peptides in black are the counterpart FIV peptides used in the current MAP vaccine trial, whereas the 13 peptides in blue were not.
Compound,"CyCD8: CD8+ T-cell cytolysin/cytotoxins (perforin, GrzA & B), frequency of responders","Cyto: CD8+ T-cell cytotoxins (perforin, GrzA & B), frequency of responders","Cyto (cytolysin/cytotoxin production), frequency of responders"
CC[C@H](C)[C@H](NC(=O)[C@H](CCCCN)NC(=O)[C@@H](NC(=O)[C@@H](NC(=O)[C@@H](NC(=O)[C@H](CC(C)C)NC(=O)[C@@H]1CCCN1C(=O)[C@H](CCCNC(=N)N)NC(=O)[C@H](CCC(N)=O)NC(=O)[C@H](Cc1c[nH]c2ccccc12)NC(=O)[C@H](CC(C)C)NC(=O)[C@@H](N)[C@@H](C)O)C(C)C)[C@@H](C)O)[C@@H](C)CC)C(=O)NCC(=O)NCC(=O)O [HPR1],− (0%-1.4% (−)),,
CC[C@H](C)[C@H](N)C(=O)N[C@@H](CC(=O)O)C(=O)N[C@@H](Cc1ccccc1)C(=O)N[C@@H](CCCNC(=N)N)C(=O)N[C@H](C(=O)N[C@@H](CC(C)C)C(=O)N[C@@H](CC(N)=O)C(=O)N[C@@H](CCCCN)C(=O)N[C@@H](CC(C)C)C(=O)N[C@H](C(=O)N[C@@H](CC(=O)O)C(=O)N[C@@H](CCCCN)C(=O)NCC(=O)N[C@@H](C)C(=O)O)[C@@H](C)O)C(C)C [FRT3-5] (H-IDFRVLNKLTDKGA-OH; N-terminus and C-terminus assumed),,+++ (41%-54% (+++)),
CC(C)C[C@H](NC(=O)[C@@H](NC(=O)[C@H](C)NC(=O)[C@@H](NC(=O)[C@@H](NC(=O)[C@H](CC(N)=O)NC(=O)[C@H](Cc1ccc(O)cc1)NC(=O)[C@H](CC(C)C)NC(=O)[C@H](CO)NC(=O)[C@H](CCCNC(=N)N)NC(=O)[C@H](CC(C)C)NC(=O)[C@H](CCC(=O)O)NC(=O)[C@H](CCC(=O)O)NC(=O)[C@H](CO)NC(=O)CN)[C@@H](C)O)C(C)C)[C@@H](C)O)C(=O)O [HMA2],− (0%-1.4% (−)),,
CSCC[C@H](NC(=O)[C@H](CCCNC(=N)N)NC(=O)[C@H](C)NC(=O)[C@@H]1CCCN1C(=O)[C@H](C)NC(=O)[C@@H](N)Cc1ccccc1)C(=O)N[C@@H](CCC(N)=O)C(=O)N[C@@H](CS)C(=O)N[C@@H](CCCNC(=N)N)C(=O)N[C@@H](C)C(=O)N[C@@H](Cc1c[nH]c2ccccc12)C(=O)N[C@@H](Cc1ccc(O)cc1)C(=O)N[C@@H](CC(C)C)C(=O)N[C@@H](CCC(=O)O)C(=O)N[C@@H](C)C(=O)O [Fp9-3] (H-FAPARMQCRAWYLEA-OH),,+++ (41%-54% (+++)),+++ (40.1%-54% (+++))
CC[C@H](C)[C@H](NC(=O)[C@H](CO)NC(=O)[C@H](CC(C)C)NC(=O)[C@H](CO)NC(=O)[C@H](CCC(N)=O)NC(=O)[C@H](CCCCN)NC(=O)[C@H](CC(C)C)NC(=O)[C@H](Cc1ccc(O)cc1)NC(=O)[C@H](CC(C)C)NC(=O)[C@@H](N)CCCCN)C(=O)N[C@@H](C)C(=O)N[C@@H](CC(N)=O)C(=O)N[C@@H](C)C(=O)O [Fp14-4] (H-KLYLKQSLSIANA-OH; N-terminus and C-terminus assumed),,++++ (>54% (++++)),++++ (>54% (++++))
CC(C)C[C@H](NC(=O)[C@@H](NC(=O)[C@H](Cc1c[nH]c2ccccc12)NC(=O)CNC(=O)[C@H](CCC(N)=O)NC(=O)[C@@H]1CCCN1C(=O)[C@H](CC(C)C)NC(=O)[C@H](CO)NC(=O)[C@H](CS)NC(=O)[C@H](Cc1c[nH]c2ccccc12)NC(=O)[C@@H](NC(=O)[C@H](Cc1ccc(O)cc1)NC(=O)[C@H](CCCNC(=N)N)NC(=O)[C@H](CCCNC(=N)N)NC(=O)CN)C(C)C)C(C)C)C(=O)O [FRT7-1] (H-GRRYVWCSLPQGWVL-OH),,+++ (41%-54% (+++)),+++ (40.1%-54% (+++))
CC[C@H](C)[C@H](NC(=O)[C@@H](N)CCCCN)C(=O)N[C@@H](CCCNC(=N)N)C(=O)N[C@@H](CC(C)C)C(=O)N[C@@H](CCCNC(=N)N)C(=O)N1CCC[C@H]1C(=O)NCC(=O)NCC(=O)N[C@@H](CCCCN)C(=O)N[C@@H](CCCCN)C(=O)N[C@@H](CCCCN)C(=O)N[C@@H](Cc1ccc(O)cc1)C(=O)O [HMA1],− (0%-1.4% (−)),,
CC[C@H](C)[C@H](NC(=O)[C@H](CC(C)C)NC(=O)[C@@H]1CCCN1C(=O)[C@H](CO)NC(=O)[C@H](CC(C)C)NC(=O)[C@@H](NC(=O)[C@H](Cc1c[nH]c2ccccc12)NC(=O)CNC(=O)[C@H](CCC(N)=O)NC(=O)[C@@H]1CCCN1C(=O)[C@H](CC(C)C)NC(=O)[C@H](CO)NC(=O)[C@@H](N)CS)C(C)C)C(=O)N[C@@H](Cc1ccc(O)cc1)C(=O)O [FRT7-2] (H-CSLPQGWVLSPLIY-OH),,++++ (>54% (++++)),++++ (>54% (++++))
CC[C@H](C)[C@H](NC(=O)[C@H](CCCNC(=N)N)NC(=O)[C@H](CC(C)C)NC(=O)[C@H](CO)NC(=O)[C@H](CCC(=O)O)NC(=O)[C@H](CCC(N)=O)NC(=O)[C@H](CCC(N)=O)NC(=O)[C@H](CCSC)NC(=O)[C@H](Cc1ccc(O)cc1)NC(=O)[C@H](CC(C)C)NC(=O)[C@H](CCC(=O)O)NC(=O)[C@@H](N)Cc1ccc(O)cc1)C(=O)N[C@@H](CCC(N)=O)C(=O)N[C@@H](CC(=O)O)C(=O)N[C@@H](CCCNC(=N)N)C(=O)O [FIN7-1] (H-YELYMQQESLRIQDR-OH; N-terminus and C-terminus assumed),,++ (26%-40% (++)),++ (25.1%-40% (++))
CC[C@H](C)[C@H](N)C(=O)N1CCC[C@H]1C(=O)N[C@H](C(=O)NCC(=O)N[C@@H](CCC(=O)O)C(=O)N[C@H](C(=O)N[C@@H](Cc1ccc(O)cc1)C(=O)N[C@@H](CCCCN)C(=O)N[C@@H](CCCNC(=N)N)C(=O)N[C@@H](Cc1c[nH]c2ccccc12)C(=O)N[C@H](C(=O)N[C@H](C(=O)N[C@@H](CC(C)C)C(=O)NCC(=O)O)[C@@H](C)CC)[C@@H](C)CC)[C@@H](C)CC)C(C)C [Hp9-3 (10-3)],+++ (40.1%-54% (+++)),,
CC[C@H](C)[C@H](NC(=O)[C@H](CO)NC(=O)[C@H](CC(C)C)NC(=O)[C@H](CO)NC(=O)[C@H](CCC(N)=O)NC(=O)[C@H](CCCCN)NC(=O)[C@H](CC(C)C)NC(=O)[C@H](Cc1ccc(O)cc1)NC(=O)[C@H](CC(C)C)NC(=O)[C@H](CCCCN)NC(=O)[C@@H](NC(=O)[C@H](CCC(=O)O)NC(=O)[C@H](C)N)C(C)C)C(=O)N[C@@H](C)C(=O)O [Fp14-3] (H-AEVKLYLKQSLSIA-OH; N-terminus and C-terminus assumed),,++++ (>54% (++++)),++++ (>54% (++++))
CC(C)C[C@H](NC(=O)[C@H](Cc1ccc(O)cc1)NC(=O)[C@H](CC(C)C)NC(=O)[C@H](CCCCN)NC(=O)[C@@H](NC(=O)[C@H](CCC(=O)O)NC(=O)[C@H](C)NC(=O)[C@@H](NC(=O)[C@H](CC(N)=O)NC(=O)[C@H](CCC(N)=O)NC(=O)[C@H](CCC(=O)O)NC(=O)[C@H](CCC(N)=O)NC(=O)[C@@H](N)CC(=O)O)[C@@H](C)O)C(C)C)C(=O)N[C@@H](CCCCN)C(=O)O [Fp14-1] (H-DQEQNTAEVKLYLK-OH),,+++ (41%-54% (+++)),+++ (40.1%-54% (+++))
